For data set [1], the target named is T1, human 5-HT1A receptor (Homo sapiens, UniProt P08908).
T1 construct: expressed in transfected cells
T1 sequence (P08908 1-422): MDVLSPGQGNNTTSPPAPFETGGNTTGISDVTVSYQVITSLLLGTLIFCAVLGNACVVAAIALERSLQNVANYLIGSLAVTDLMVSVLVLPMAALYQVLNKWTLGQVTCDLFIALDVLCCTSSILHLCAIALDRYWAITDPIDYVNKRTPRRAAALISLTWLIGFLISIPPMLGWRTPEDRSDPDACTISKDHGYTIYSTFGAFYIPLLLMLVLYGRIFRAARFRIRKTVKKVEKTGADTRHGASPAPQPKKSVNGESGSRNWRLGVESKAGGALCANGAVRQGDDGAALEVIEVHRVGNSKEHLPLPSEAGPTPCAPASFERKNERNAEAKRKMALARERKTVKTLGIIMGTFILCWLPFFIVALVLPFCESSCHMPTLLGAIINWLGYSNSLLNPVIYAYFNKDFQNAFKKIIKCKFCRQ
Nature of the data set: Radioligand binding assay at human 5-HT1A receptor. The settings on record: mean ± SEM, read-out: % inh. at 10 μM (5-HT1A). As to the method:
(§1) Radioligand binding assays were performed on cell membrane preparations from cell lines stably expressing the human cloned receptors. […] Experimental conditions for binding assays at D1, D2, D3, 5-HT1A and 5-HT2A receptors have been previously reported. 0.7 nM [^3H]-SCH23390, 2 nM [^3H]-SB269970 (5-HT7), 2 nM [^3H]-Pyrilamine (H1) and 2 nM [^3H]-Pirenzepine (M1) were employed as radioligands. […] Affinity (equilibrium dissociation constant (Ki) and pKi (−logKi)) values were calculated as previously reported. Affinity values of reference compounds that were assayed in parallel to D2AAK4 as internal controls in the binding assays are given in Supplementary Figure S1 (legend).

For data set [2], the target named is T2, human D2S receptor (Homo sapiens, UniProt P14416).
T2 construct: expressed in transfected cells
T2 sequence (P14416 1-414 isoform P14416-2): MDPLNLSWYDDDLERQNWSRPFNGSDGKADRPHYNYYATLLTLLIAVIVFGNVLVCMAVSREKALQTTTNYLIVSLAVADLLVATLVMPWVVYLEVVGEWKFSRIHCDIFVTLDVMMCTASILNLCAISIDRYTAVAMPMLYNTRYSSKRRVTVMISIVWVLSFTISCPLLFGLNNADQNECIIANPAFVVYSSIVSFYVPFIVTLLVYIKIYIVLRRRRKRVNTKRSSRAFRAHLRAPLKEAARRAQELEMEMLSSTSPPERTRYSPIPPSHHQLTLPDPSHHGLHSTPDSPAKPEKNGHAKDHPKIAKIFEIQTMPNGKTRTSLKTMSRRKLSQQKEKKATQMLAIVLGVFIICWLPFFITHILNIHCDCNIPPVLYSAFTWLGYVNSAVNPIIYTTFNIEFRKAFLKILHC
Briefly: Radioligand binding assay at human D2 receptor. As to conditions: mean ± SEM, two independent experiments in duplicate; read-out: pKi hD2 (converted). As for the experimental part: Radioligand binding assays were performed on cell membrane preparations from cell lines stably expressing the human cloned receptors. Chinese hamster ovary K1 (CHO-K1) cell lines stably expressing human D2S, 5-HT2A or H1 receptors and human embryonic kidney 293 (HEK293) cell lines stably expressing human 5-HT1A or 5-HT7(a) receptors were in-house available, whereas CHO-K1 cell lines stably expressing human D1 or D3 receptors (Perkin Elmer, Waltham, MA, USA) and Chem-1 cell line stably expressing human M1 receptor (Millipore, Merck KGaA, Darmstadt, Germany) were commercially available. Experimental conditions for binding assays at D1, D2, D3, 5-HT1A and 5-HT2A receptors have been previously reported. 0.7 nM [^3H]-SCH23390, 2 nM [^3H]-SB269970 (5-HT7), 2 nM [^3H]-Pyrilamine (H1) and 2 nM [^3H]-Pirenzepine (M1) were employed as radioligands. […] Affinity (equilibrium dissociation constant (Ki) and pKi (−logKi)) values were calculated as previously reported. Affinity values of reference compounds that were assayed in parallel to D2AAK4 as internal controls in the binding assays are given in Supplementary Figure S1 (legend).

For data set [3], the target named is T3, human M1 receptor (Homo sapiens, UniProt P11229).
T3 sequence (P11229 1-460): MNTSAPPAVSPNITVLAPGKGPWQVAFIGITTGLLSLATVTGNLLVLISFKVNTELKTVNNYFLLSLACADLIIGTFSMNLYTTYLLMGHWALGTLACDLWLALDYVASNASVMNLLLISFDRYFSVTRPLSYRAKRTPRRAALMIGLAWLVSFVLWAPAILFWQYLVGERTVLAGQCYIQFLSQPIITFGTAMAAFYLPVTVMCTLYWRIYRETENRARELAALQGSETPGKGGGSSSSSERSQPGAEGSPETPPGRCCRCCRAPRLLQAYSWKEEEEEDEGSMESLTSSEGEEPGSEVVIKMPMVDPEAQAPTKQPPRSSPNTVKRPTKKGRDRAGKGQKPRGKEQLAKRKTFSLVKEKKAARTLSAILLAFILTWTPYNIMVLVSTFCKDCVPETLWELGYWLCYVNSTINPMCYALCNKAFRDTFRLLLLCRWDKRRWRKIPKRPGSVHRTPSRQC
Briefly: Radioligand binding assay at human M1 receptor. The settings on record: mean ± SEM; full displacement not achieved at maximum concentration, pKi could be not accurately estimated; read-out: pKi hM1 (converted). As for the experimental part:
as §1

The subject of data set [4] is mice. Briefly: Elevated plus maze (EPM) test. As to conditions: 100 mg/kg i.p., 30 and 60 min after administration. The data set is classed as in vivo. As to the method: The EPM apparatus was used as described previously. The EPM procedure was described in our previous papers. The percentage (%) of time spent in the open arms and % of entries into the open arms were calculated. Moreover, the number of entries into the closed arms was recorded as the motor activity indicator of tested mice.
To determine D2AAK4 acute effect on anxiety-like behavior, the studied compound (100 mg/kg; i.p.) (n = 8) or vehicle (i.p.) (n = 8) was injected 30 and 60 min before the EPM test.

Data set [5] concerns the target human D3 receptor (Homo sapiens, UniProt P35462). Nature of the data set: Radioligand binding assay at human D3 receptor. As to conditions: mean ± SEM, two independent experiments in duplicate; read-out: pKi hD3 (converted). As to the method:
as §1

In data set [6] the target is T2, human D2S receptor. Nature of the data set: Functional assay of cAMP signaling at D2 receptors (CHO-K1 cells). The data set is classed as cell-based.
Description: Compound was initially assessed at 10 µM concentration either as agonist or as antagonist of 10 µM dopamine response. Dopamine (10 nM–1 mM) was used as reference agonist in these assays.
The target of data set [7] is T4, human H1 receptor (Homo sapiens, UniProt P35367).
T4 construct: expressed in transfected cells
T4 sequence (P35367 whole entry): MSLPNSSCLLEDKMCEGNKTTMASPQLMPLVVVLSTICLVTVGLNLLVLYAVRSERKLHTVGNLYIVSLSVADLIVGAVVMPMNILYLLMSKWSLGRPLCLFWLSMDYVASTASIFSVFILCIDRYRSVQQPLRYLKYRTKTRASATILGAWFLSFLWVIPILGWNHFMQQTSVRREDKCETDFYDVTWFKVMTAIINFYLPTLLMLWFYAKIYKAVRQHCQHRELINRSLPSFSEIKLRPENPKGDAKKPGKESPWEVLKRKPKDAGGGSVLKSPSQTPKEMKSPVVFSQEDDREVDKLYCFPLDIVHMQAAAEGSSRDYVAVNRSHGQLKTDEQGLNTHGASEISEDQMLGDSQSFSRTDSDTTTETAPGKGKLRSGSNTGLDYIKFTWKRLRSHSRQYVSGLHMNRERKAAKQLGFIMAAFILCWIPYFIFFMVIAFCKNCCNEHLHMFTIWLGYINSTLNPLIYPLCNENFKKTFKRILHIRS
Nature of the data set: Radioligand binding assay at human H1 receptor. As to conditions: mean ± SEM, two independent experiments in duplicate; read-out: pKi hH1 (converted). As for the experimental part:
as §1

The target of data set [8] is human D1 receptor (Homo sapiens, UniProt P21728). Briefly: Radioligand binding assay at human D1 receptor. The settings on record: mean ± SEM, two independent experiments in duplicate; read-out: pKi hD1 (converted). As for the experimental part:
as §1

Data set [9] concerns the target T5, human 5-HT7(a) receptor (Homo sapiens, UniProt P34969).
T5 construct: expressed in transfected cells
Nature of the data set: Radioligand binding assay at human 5-HT7 receptor. The settings on record: mean ± SEM; full displacement not achieved at maximum concentration, pKi could be not accurately estimated; read-out: pKi h5-HT7 (converted). As for the experimental part: as §1

Data set [10] addresses T6, human 5-HT2A receptor (Homo sapiens, UniProt P28223).
T6 construct: expressed in transfected cells
Nature of the data set: Functional assay of inositol phosphate (IP) production at 5-HT2A receptors (CHO-K1 cells). It counts as cell-based.

Data set [11] concerns mice. Nature of the data set: Passive avoidance (PA) task, memory consolidation. The data set is classed as in vivo. The settings on record: 100 mg/kg i.p. immediately after pretest, retest 24 h later; p < 0.0001 vs vehicle. As to the method: The PA apparatus was described previously. The PA procedure was also previously described.
Mice received D2AAK4 immediately after being pretested on Day 1, and then they were retested (without injections) 24 h later. The changes in PA performance were calculated as the difference between retention and training latencies (i.e., latency index (IL)). More specifically, IL was calculated for each animal and presented as the ratio (as described in [12, 29]).

The target of data set [12] is T6, human 5-HT2A receptor. Briefly: Radioligand binding assay at human 5-HT2A receptor. As for the experimental part:
as §1

Data set [13] has as its target T2, human D2S receptor. As to conditions: 10 µM compound versus 10 µM dopamine, cAMP assay; cited from earlier work.
Data set [14] concerns mice. Nature of the data set: Motor coordination, rotarod and chimney tests. The data set is classed as in vivo. As to conditions: 100 mg/kg i.p., 60 min after injection. As to the method:
Motor coordination has been assessed in mice using the rotarod test and the chimney test using the same procedure as described in our earlier work. […] D2AAK1 was previously studied using the same dose so we decided to select the dose of 100 mg/kg.
(In general: The rotarod test checks motor coordination on a turning rod.)

Data set [15] deals with mice. Nature of the data set: Amphetamine-induced hyperactivity. As to conditions: 100 mg/kg i.p. coadministered with amphetamine 5 mg/kg s.c.; p < 0.001 vs amphetamine-treated group.
In data set [16] the target is T6, human 5-HT2A receptor. The settings on record: atypical antipsychotics, literature values, no reference given; cited from earlier work.

Several values for one entry are separate records, joined by “and”; a condition that tells them apart may be missing. Equal entries are not always repeated.

For orientation: IC50 means the concentration needed to halve the response being measured.

T6 sequence (P28223 whole entry): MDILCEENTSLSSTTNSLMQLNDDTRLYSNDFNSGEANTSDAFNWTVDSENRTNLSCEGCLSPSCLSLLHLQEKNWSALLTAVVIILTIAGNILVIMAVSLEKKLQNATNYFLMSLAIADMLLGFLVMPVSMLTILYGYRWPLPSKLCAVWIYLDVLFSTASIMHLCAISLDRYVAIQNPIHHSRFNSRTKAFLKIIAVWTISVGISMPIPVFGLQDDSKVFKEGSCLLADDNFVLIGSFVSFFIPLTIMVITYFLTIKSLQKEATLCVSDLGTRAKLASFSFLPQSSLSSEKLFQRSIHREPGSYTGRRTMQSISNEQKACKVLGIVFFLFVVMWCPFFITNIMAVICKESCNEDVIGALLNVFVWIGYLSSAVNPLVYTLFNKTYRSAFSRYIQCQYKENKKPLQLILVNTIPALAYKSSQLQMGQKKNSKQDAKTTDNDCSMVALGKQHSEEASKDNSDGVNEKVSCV
Sequence of human D1 receptor (P21728 whole entry): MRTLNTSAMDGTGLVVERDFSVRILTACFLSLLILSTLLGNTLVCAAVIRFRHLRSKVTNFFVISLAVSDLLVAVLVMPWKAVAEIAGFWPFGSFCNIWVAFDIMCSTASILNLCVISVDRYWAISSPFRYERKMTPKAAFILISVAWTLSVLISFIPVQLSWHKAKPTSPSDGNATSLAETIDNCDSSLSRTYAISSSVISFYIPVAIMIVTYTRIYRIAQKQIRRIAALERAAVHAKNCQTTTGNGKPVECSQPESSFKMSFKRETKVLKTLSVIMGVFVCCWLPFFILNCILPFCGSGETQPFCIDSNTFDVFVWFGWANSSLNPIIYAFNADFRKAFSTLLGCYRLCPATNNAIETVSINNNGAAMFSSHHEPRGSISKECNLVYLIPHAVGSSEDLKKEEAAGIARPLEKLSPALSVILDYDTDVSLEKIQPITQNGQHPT
T5 sequence (P34969 1-445 isoform P34969-2): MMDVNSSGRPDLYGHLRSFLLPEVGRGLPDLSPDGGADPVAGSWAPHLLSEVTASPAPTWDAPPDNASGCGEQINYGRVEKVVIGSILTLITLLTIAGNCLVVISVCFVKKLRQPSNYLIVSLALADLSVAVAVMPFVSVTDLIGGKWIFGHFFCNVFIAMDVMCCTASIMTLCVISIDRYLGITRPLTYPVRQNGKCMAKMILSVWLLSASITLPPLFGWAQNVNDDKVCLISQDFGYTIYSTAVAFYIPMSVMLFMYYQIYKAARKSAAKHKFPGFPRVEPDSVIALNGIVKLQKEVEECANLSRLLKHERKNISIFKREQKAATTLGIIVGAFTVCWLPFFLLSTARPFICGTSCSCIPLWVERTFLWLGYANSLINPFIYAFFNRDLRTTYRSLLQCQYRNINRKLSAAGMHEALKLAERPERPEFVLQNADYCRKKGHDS
Sequence of human D3 receptor (P35462 whole entry): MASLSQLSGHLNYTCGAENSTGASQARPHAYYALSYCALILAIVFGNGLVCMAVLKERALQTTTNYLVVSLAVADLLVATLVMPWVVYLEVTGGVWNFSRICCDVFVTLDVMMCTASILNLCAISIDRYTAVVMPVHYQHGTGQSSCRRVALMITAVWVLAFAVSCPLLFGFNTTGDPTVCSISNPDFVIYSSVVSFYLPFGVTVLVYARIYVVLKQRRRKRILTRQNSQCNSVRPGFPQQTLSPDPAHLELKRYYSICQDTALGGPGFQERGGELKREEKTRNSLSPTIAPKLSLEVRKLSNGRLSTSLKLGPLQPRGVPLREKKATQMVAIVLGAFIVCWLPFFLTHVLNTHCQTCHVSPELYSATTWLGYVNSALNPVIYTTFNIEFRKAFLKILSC

For the compound `O=C(Nc1ccccc1O)C1CCN(CCCn2c(=O)[nH]c3ccccc32)CC1` [D2AAK4, N-(2-hydroxyphenyl)-1-[3-(2-oxo-2,3-dihydro-1H-benzimidazol-1-yl)propyl]piperidine-4-carboxamide], the inhibition at 10 µM in data set [1] came out at 9.7 ± 0.4%; in [10] (CHO-K1, read-out: % inh. at 10 µM (inhibition of 5-HT response), h5-HT2A, 10 µM compound versus 1 µM 5-HT, IP assay) it was 97.4 ± 1.6%. Besides, the Ki was 1.86 µM in data set [2]; 3.89 µM in [3]; 9.33 µM in data set [5]; 3.89 µM in [7]; 2.51 µM in data set [8]; 6.61 µM in data set [9]. For the same compound, the Ki in data set [12] (mean ± SEM, three independent experiments in duplicate, read-out: pKi h5-HT2A (converted)) was 0.49 µM. Also, the “% of the time spent in the open arms” value in data set [4] (p < 0.0001) is reported as “decrease”. Moreover, the “% of the open arm entries” value in data set [4] (p = 0.0272 and p = 0.0092) is recorded as “decrease”. Also, the “% inh. at 100 µM (inhibition of dopamine response), hD2” value in data set [6] (100 µM compound (maximal assayed) versus 10 µM dopamine, cAMP assay) is 44%. Also, the inhibition at 100 µM in [6] (CHO-K1, read-out: % inh. at 100 µM (inhibition of dopamine response), hD2, 100 µM compound (maximal assayed) versus 10 µM dopamine, cAMP assay) turned out to be 44.1 ± 1.5%. In data set [10] (0.1 nM to 100 µM), the “agonist efficacy at 5-HT2A (IP signaling)” value is “unable to promote IP signaling”. Moreover, in data set [10] (versus 1 µM 5-HT-stimulated IP production, read-out: IC50, 5-HT2A antagonist), the IC50 came to 0.714 µM. Besides, the “latency index (IL) values, memory consolidation” value in data set [11] is listed as “statistically significant increase”. Besides, the “5-HT2A/D2 affinity ratio (Ki D2/Ki 5-HT2A), times higher affinity for 5-HT2A” value in [12] (5-HT2A versus D2 receptor) is listed as 3.67 times. Besides, in data set [13], the “% inh. at 10 µM (inhibition of dopamine response), hD2” value is 12.1 ± 6.0% and 12%. Moreover, in data set [14], the “motor coordination in rotarod and chimney tests” value is “does not impair mouse motor coordination”. In addition, the amphetamine-induced hyperactivity entry in data set [15] was “decreased amphetamine-induced hyperactivity”.

Regarding `Cc1nc2n(c(=O)c1CCN1CCC(c3noc4cc(F)ccc34)CC1)CCCC2O` (stereo not shown) [paliperidone], the 5-HT2A/D2 affinity ratio in data set [16] is on record as 2.16.

`O=C1Cc2cc(CCN3CCN(c4nsc5ccccc45)CC3)c(Cl)cc2N1` [ziprasidone]: the 5-HT2A/D2 affinity ratio in data set [16] is listed as ~ 5.60.

The values are drawn from PMC7072648, “N-(2-Hydroxyphenyl)-1-[3-(2-oxo-2,3-dihydro-1H- benzimidazol-1-yl)propyl]piperidine-4-Carboxamide (D2AAK4), a Multi-Target Ligand of Aminergic GPCRs, as a Potential Antipsychotic” (Biomolecules, 2020).
